Measured values published in patent US9884842B2, “Combretastatin analogs” (The Board of Trustees of the University of Arkansas, priority 2013, dated 2018).

How the values were obtained:
MOLT-4 = assay: NCI growth inhibition and cytotoxicity screen, Leukemia panel; conditions: Homo sapiens; for GI50: MOLT-4; for CC50: MOLT-4, read-out: LC50
NCI-H23 = assay: NCI growth inhibition and cytotoxicity screen, Lung Cancer panel; conditions: Homo sapiens; for GI50: NCI-H23; for CC50: NCI-H23, read-out: LC50
CCRF-CEM = assay: NCI growth inhibition and cytotoxicity screen, Leukemia panel; conditions: Homo sapiens; for CC50: read-out: LC50
MCF7 = assay: NCI growth inhibition and cytotoxicity screen, Breast Cancer panel; conditions: Homo sapiens; for GI50: MCF7; for CC50: MCF7, read-out: LC50
HCT-15 = assay: NCI growth inhibition and cytotoxicity screen, Colon Cancer panel; conditions: Homo sapiens; for GI50: HCT-15; for CC50: HCT-15, read-out: LC50
ACHN = assay: NCI growth inhibition and cytotoxicity screen, Renal Cancer panel; conditions: Homo sapiens; for CC50: read-out: LC50
SK-MEL-2 = assay: NCI growth inhibition and cytotoxicity screen, Melanoma panel; conditions: Homo sapiens; for GI50: SK-MEL-2; for CC50: SK-MEL-2, read-out: LC50
MALME-3M = assay: as above; conditions: Homo sapiens; for CC50: read-out: LC50
SNB-75 = assay: NCI growth inhibition and cytotoxicity screen, CNS Cancer panel; conditions: Homo sapiens; for GI50: SNB-75; for CC50: SNB-75, read-out: LC50
SF-539 = assay: as above; conditions: Homo sapiens; for GI50: SF-539; for CC50: SF-539, read-out: LC50
K-562 = assay: NCI growth inhibition and cytotoxicity screen, Leukemia panel; conditions: Homo sapiens; for GI50: K562; for CC50: K562, read-out: LC50
PC-3 = assay: NCI growth inhibition and cytotoxicity screen, Prostate Cancer panel; conditions: Homo sapiens; for GI50: PC-3; for CC50: PC-3, read-out: LC50
OVCAR-5 = assay: NCI growth inhibition and cytotoxicity screen, Ovarian Cancer panel; conditions: Homo sapiens; for GI50: OVCAR-5; for CC50: OVCAR-5, read-out: LC50
SNB-19 = assay: NCI growth inhibition and cytotoxicity screen, CNS Cancer panel; conditions: Homo sapiens; for GI50: SNB-19; for CC50: SNB-19, read-out: LC50
NCI-H226 = assay: NCI growth inhibition and cytotoxicity screen, Lung Cancer panel; conditions: Homo sapiens; for GI50: NCI-H226; for CC50: NCI-H226, read-out: LC50
SN12C = assay: NCI growth inhibition and cytotoxicity screen, Renal Cancer panel; conditions: Homo sapiens; for CC50: read-out: LC50
HCC-2998 = assay: NCI growth inhibition and cytotoxicity screen, Colon Cancer panel; conditions: Homo sapiens; for GI50: HCC 2998; for CC50: HCC 2998, read-out: LC50
MDA-MB-468 = assay: cells; conditions: Homo sapiens; for GI50: MDA-MB-468; for CC50: MDA-MB-468, read-out: LC50
SK-MEL-5 = assay: NCI growth inhibition and cytotoxicity screen, Melanoma panel; conditions: Homo sapiens; for GI50: SK-MEL-5; for CC50: SK-MEL-5, read-out: LC50
NCI-H322M = assay: NCI growth inhibition and cytotoxicity screen, Lung Cancer panel; conditions: Homo sapiens, read-out: LC50
SW-620 = assay: NCI growth inhibition and cytotoxicity screen, Colon Cancer panel; conditions: Homo sapiens; for GI50: SW-620; for CC50: SW-620, read-out: LC50
MDA-MB-231/ATCC = assay: NCI growth inhibition and cytotoxicity screen, Breast Cancer panel; conditions: Homo sapiens; for GI50: MDA-MB-231; for CC50: MDA-MB-231, read-out: LC50
HS 578T = assay: as above; conditions: Homo sapiens; for CC50: read-out: LC50
SF-295 = assay: NCI growth inhibition and cytotoxicity screen, CNS Cancer panel; assay type: cell-based; conditions: Homo sapiens, SF-295, Table 1, cell line SF-2395 (CNS Cancer); for CC50: read-out: LC50 (the source's name)
CAKI-1 = assay: NCI growth inhibition and cytotoxicity screen, Renal Cancer panel; conditions: Homo sapiens; for GI50: CAKI-1; for CC50: CAKI-1, read-out: LC50
KM12 = assay: NCI growth inhibition and cytotoxicity screen, Colon Cancer panel; conditions: Homo sapiens; for GI50: KM12; for CC50: KM12, read-out: LC50
UACC-257 = assay: NCI growth inhibition and cytotoxicity screen, Melanoma panel; conditions: Homo sapiens; for GI50: UACC-257; for CC50: UACC-257, read-out: LC50
U251 = assay: NCI growth inhibition and cytotoxicity screen, CNS Cancer panel; conditions: Homo sapiens; for GI50: U-251; for CC50: U-251, read-out: LC50
OVCAR-4 = assay: NCI growth inhibition and cytotoxicity screen, Ovarian Cancer panel; conditions: Homo sapiens; for GI50: OVCAR-4; for CC50: OVCAR-4, read-out: LC50
SK-OV-3 = assay: as above; conditions: Homo sapiens; for GI50: SK-OV-3; for CC50: SK-OV-3, read-out: LC50
LOX-IMVI = assay: NCI growth inhibition and cytotoxicity screen, Melanoma panel; conditions: Homo sapiens; for CC50: read-out: LC50
NCI-H522 = assay: NCI growth inhibition and cytotoxicity screen, Lung Cancer panel; assay type: cell-based; conditions: Homo sapiens, NCI-H522, Table 1, cell line NCIH522 (Lung Cancer); for CC50: read-out: LC50 (the source's name)

Molecule `COc1cc(OC)cc(/C(C#N)=C/c2c[nH]c3ccccc23)c1` [Formula (I)(b)] has a GI50 (MOLT-4) of 49.1 nM, a CC50 (MOLT-4) greater than 100000 nM and a GI50 (NCI-H23) greater than 100 nM. It also gave a CC50 (NCI-H23) greater than 100000 nM, a GI50 (CCRF-CEM) of 42.4 nM and a CC50 (CCRF-CEM) greater than 100000 nM. For the same molecule, the GI50 (MCF7) was 41.4 nM, the CC50 (MCF7) was greater than 100000 nM and the GI50 (HCT-15) was 53.5 nM. It also gave a CC50 (HCT-15) greater than 100000 nM, a GI50 (ACHN) greater than 100 nM and a CC50 (ACHN) greater than 100000 nM. The GI50 (SK-MEL-2) was 51.2 nM, the CC50 (SK-MEL-2) was greater than 100000 nM and the CC50 (MALME-3M) was greater than 100000 nM. For the same molecule, the GI50 (SNB-75) was 34.8 nM, the CC50 (SNB-75) was greater than 100000 nM and the GI50 (SF-539) was 52.2 nM. For the same molecule, the CC50 (SF-539) was 90200 nM, the GI50 (K-562) was 43.2 nM and the CC50 (K-562) was greater than 100000 nM. The GI50 (PC-3) was 75.5 nM, the CC50 (PC-3) was greater than 100000 nM and the GI50 (OVCAR-5) was greater than 100 nM. The CC50 (OVCAR-5) was greater than 100000 nM, the GI50 (SNB-19) was 62.1 nM and the CC50 (SNB-19) was greater than 100000 nM. It also gave a GI50 (NCI-H226) greater than 100 nM, a CC50 (NCI-H226) greater than 100000 nM and a GI50 (SN12C) of 77.9 nM. The CC50 (SN12C) was greater than 100000 nM, the GI50 (HCC-2998) was greater than 100 nM and the CC50 (HCC-2998) was greater than 100000 nM. For the same molecule, the GI50 (MDA-MB-468) was greater than 100 nM, the CC50 (MDA-MB-468) was greater than 100000 nM and the GI50 (SK-MEL-5) was 48.6 nM. It also gave a CC50 (SK-MEL-5) greater than 100000 nM, a CC50 (NCI-H322M) greater than 100000 nM and a GI50 (SW-620) of 44.1 nM. It also gave a CC50 (SW-620) greater than 100000 nM, a GI50 (MDA-MB-231/ATCC) greater than 100 nM and a CC50 (MDA-MB-231/ATCC) greater than 100000 nM. The GI50 (HS 578T) was greater than 100 nM, the CC50 (HS 578T) was greater than 100000 nM and the GI50 (SF-295) was 45.3 nM. For the same molecule, the CC50 (SF-295) was greater than 100000 nM, the GI50 (CAKI-1) was 35 nM and the CC50 (CAKI-1) was greater than 100000 nM. It also gave a GI50 (KM12) of 40.9 nM, a CC50 (KM12) greater than 100000 nM and a GI50 (UACC-257) of 48.7 nM. It also gave a CC50 (UACC-257) greater than 100000 nM, a GI50 (U251) of 45.4 nM and a CC50 (U251) greater than 100000 nM. The GI50 (OVCAR-4) was greater than 100 nM, the CC50 (OVCAR-4) was greater than 100000 nM and the GI50 (SK-OV-3) was greater than 100 nM. The CC50 (SK-OV-3) was greater than 100000 nM, the GI50 (LOX-IMVI) was 78.4 nM and the CC50 (LOX-IMVI) was greater than 100000 nM. It also gave a GI50 (NCI-H522) of 27.1 nM and a CC50 (NCI-H522) greater than 100000 nM.

Work on `COc1cc(/C=C/c2nc3ccccc3s2)cc(OC)c1OC` [Formula (I)(d)] yielded a GI50 (MOLT-4) of 1.28 nM, a CC50 (MOLT-4) greater than 100000 nM and a GI50 (NCI-H23) of 0.72 nM. The CC50 (NCI-H23) was greater than 100000 nM, the GI50 (CCRF-CEM) was 0.13 nM and the CC50 (CCRF-CEM) was greater than 100000 nM. It also gave a GI50 (MCF7) of 0.31 nM, a CC50 (MCF7) of 51500 nM and a GI50 (HCT-15) of 0.063 nM. For the same molecule, the CC50 (HCT-15) was greater than 100000 nM, the GI50 (ACHN) was 1.22 nM and the CC50 (ACHN) was greater than 100000 nM. It also gave a GI50 (SK-MEL-2) of 0.064 nM, a CC50 (SK-MEL-2) of 64200 nM and a GI50 (MALME-3M) of 0.07 nM. The CC50 (MALME-3M) was 51600 nM, the GI50 (SNB-75) was 0.16 nM and the CC50 (SNB-75) was greater than 100000 nM. For the same molecule, the GI50 (SF-539) was 0.076 nM, the CC50 (SF-539) was 56200 nM and the GI50 (K-562) was 0.041 nM. For the same molecule, the CC50 (K-562) was greater than 100000 nM, the GI50 (PC-3) was 0.13 nM and the CC50 (PC-3) was greater than 100000 nM. The GI50 (OVCAR-5) was 0.93 nM, the CC50 (OVCAR-5) was greater than 100000 nM and the GI50 (SNB-19) was 0.095 nM. The CC50 (SNB-19) was greater than 100000 nM, the GI50 (NCI-H226) was 0.24 nM and the CC50 (NCI-H226) was 88500 nM. For the same molecule, the GI50 (SN12C) was 9.37 nM, the CC50 (SN12C) was greater than 100000 nM and the GI50 (HCC-2998) was 2.23 nM. The CC50 (HCC-2998) was 63500 nM, the GI50 (MDA-MB-468) was 0.82 nM and the CC50 (MDA-MB-468) was greater than 100000 nM. It also gave a GI50 (SK-MEL-5) of 0.047 nM, a CC50 (SK-MEL-5) of 34000 nM and a CC50 (NCI-H322M) greater than 100000 nM. For the same molecule, the GI50 (SW-620) was 0.43 nM, the CC50 (SW-620) was greater than 100000 nM and the GI50 (MDA-MB-231/ATCC) was 0.71 nM. It also gave a CC50 (MDA-MB-231/ATCC) greater than 100000 nM, a GI50 (HS 578T) of 0.17 nM and a CC50 (HS 578T) greater than 100000 nM. It also gave a GI50 (SF-295) of 0.07 nM, a CC50 (SF-295) greater than 100000 nM and a GI50 (CAKI-1) of 0.14 nM. It also gave a CC50 (CAKI-1) greater than 100000 nM, a GI50 (KM12) of 0.072 nM and a CC50 (KM12) of 41600 nM. The GI50 (UACC-257) was 15 nM, the CC50 (UACC-257) was greater than 100000 nM and the GI50 (U251) was 0.88 nM. The CC50 (U251) was greater than 100000 nM, the GI50 (OVCAR-4) was 1.81 nM and the CC50 (OVCAR-4) was greater than 100000 nM. For the same molecule, the GI50 (SK-OV-3) was 0.16 nM, the CC50 (SK-OV-3) was greater than 100000 nM and the GI50 (LOX-IMVI) was 1.9 nM. It also gave a CC50 (LOX-IMVI) of 67900 nM, a GI50 (NCI-H522) of 0.16 nM and a CC50 (NCI-H522) of 47900 nM.
